We go through 1 molecule from patent US20250161312A1, “A METHOD FOR THE TREATMENT OF CHEMOTHERAPEUTIC DRUG-INDUCED NEPHROTOXICITY” (INSTITUT NATIONAL DE LA SANTÉ ET DE LA RECHERCHE MÉDICALE, priority 2022, published 2025).

The subject of the test is H1975 cells. The test is described as follows: Immunoblot quantification in H1975 cells. Format: cell-based. The note with it: 20 μM cisplatin, 10 nM KW6002, 24 hours. On the procedure: FIG. 7. […] Caspase 3/-7 activity (n=3 independent experiments) (A) and the number of γH2AX nuclear foci (n=36-63 nuclei/group) (B) were determined. […] Results are expressed as the mean±SEM (n=3 independent experiments). (E) Tail moment was assessed by comet assay. A total of 50 cells per condition were analyzed. *** P<0.001; 1-way ANOVA followed by Tukey's post hoc test. […] (I) KW6002 increased yH2AX expression in tumors from mice of the LLC1 syngeneic model. Quantification of nuclear yH2AX expression.
Cells and tissues were homogenized using RIPA buffer (Sigma) supplemented with protease and phosphatase inhibitors (Pierce). 10 μg of total proteins were heated for 10 min at 70° C. and loaded on NuPAGE Novex gels (Thermo Fisher Scientific). After transfer of proteins to nitrocellulose membranes, membranes were blocked with 5% milk in TBS-tween followed by incubation with anti-cleaved caspase 3 (1/1000; #9661, Cell Signaling) or anti-cleaved PARP1 (1/1000; #5625, Cell Signaling) primary antibodies. Visualization of protein was achieved by using horseradish peroxidase-coupled secondary antibodies (1/2000; #7074, Cell signaling). Detection signal was performed by using the ECL select chemiluminescent kit (GE Healthcare) and Image Quant LAS 4000 (GE Healthcare). Data were analyzed with Image J. Membranes were probed with anti-GAPDH (glyceraldehyde-3-phosphate deshydrogenase) antibody as normalizer (G9545, Sigma).

Take `CCn1c(=O)c2c(nc(/C=C/c3ccc(OC)c(OC)c3)n2C)n(CC)c1=O` [KW-6002, 8-[(E)-2-(3,4-dimethoxyphenyl)vinyl]-1,3-diethyl-7-methyl-3,7-dihydro-1H-purine-2,6-dione]: the “apoptosis: caspase 3” value (FIG. 7C) is “did not impede the antitumoral effect of cisplatin”. For the same molecule, the “apoptosis: PARP” value (FIG. 7D) is “even potentiated the efficacy of cisplatin”. Moreover, the “cell cycle: cyclin D1” value (FIG. 7G) is recorded as “did not impede the antitumoral effect of cisplatin”. Under “FIG. 7H”, the “cell cycle: PCNA” value is on record as “even potentiated the efficacy of cisplatin”.
